How the values were obtained:
Alternaria solani = experiment: agar diffusion test, in vitro inhibitory activity; assay type: cell-based; conditions: 500 μg per 6 mm filter paper, PDA, 28° C., 72 or 96 hours
Description: (§1) Experiment of in vitro inhibitory activities of the trisaccharide ester compounds 1 to 5 obtained in embodiment 2 against common plant pathogenic fungi of twelve genus.
(§2) The fungi used in the experiments include: 1) Alternaria solani (causing early blight of tomatoes), 2) Botryospuaeria berengeriana (causing ring rot of apples), 3) Botrytis cinerea (causing grey mould of tomatoes), 4) Colletotrichum gloeosporioides (causing anthracnose of mangos), 5) Curvularia lunata (which will infect bananas), 6) Fusarium oxysporium (causing fusarium wilt of bananas and watermelons), 7) Geotrichum citri-aurantii (causing sour rot of citrus), 8) Helminthosporium maydis (causing southern corn leaf blight), 9) Penicillium italicum (causing blue mould of citrus), 10) Peronophythora litchii (which will infect litchi), 11) Rhizoctonia solani (causing sheath blight of rice), and 12) Ustilaginoidea virens (causing false smut of rice).
(§3) The antifungal activities of the compounds 1 to 5 were determined by the agar diffusion test. The fungi were activated and respectively seeded onto petri dishes containing PDA solid culture medium, and spread uniformly with T-shaped spreaders. Each compound was dissolved in methanol to give a 50 mg/mL solution. 10 μL of the solution was then added dropwise onto a filter paper (with a diameter of 6 mm) and let dry in the clean bench such that each filter paper contained 500 μg of the compound eventually. The filter papers were then pressed to the pertri dishes mentioned above and left to incubate in dark at 28° C. for 72 or 96 hours, and then the inhibition widths were measured (a inhibition width refers to an average diameter of the zones of inhibition), wherein filter papers containing a same volume of methanol were used as negative controls.

Fusarium oxysporium = experiment: agar diffusion test, in vitro inhibitory activity; assay type: cell-based; conditions: 500 μg per 6 mm filter paper, PDA, 28° C., 72 or 96 hours
Description: as §1, §2, §3

Peronophythora litchii = experiment: agar diffusion test, in vitro inhibitory activity; assay type: cell-based; conditions: 500 μg per 6 mm filter paper, PDA, 28° C., 72 or 96 hours
Description: as §1, §2, §3

Ustilaginoidea virens = experiment: agar diffusion test, in vitro inhibitory activity; assay type: cell-based; conditions: 500 μg per 6 mm filter paper, PDA, 28° C., 72 or 96 hours
Description: as §1, §2, §3

Curvularia lunata = experiment: agar diffusion test, in vitro inhibitory activity; assay type: cell-based; conditions: 500 μg per 6 mm filter paper, PDA, 28° C., 72 or 96 hours
Description: as §1, §2, §3

[1] = system: Geotrichum citri-aurantii; experiment: agar diffusion test, in vitro inhibitory activity; assay type: cell-based; conditions: 500 μg per 6 mm filter paper, PDA, 28° C., 72 or 96 hours
Description: as §1, §2, §3

[2] = system: Botryospuaeria berengeriana; experiment: agar diffusion test, in vitro inhibitory activity; assay type: cell-based; conditions: 500 μg per 6 mm filter paper, PDA, 28° C., 72 or 96 hours
Description: as §1, §2, §3

[3] = system: Colletotrichum gloeosporioides; experiment: agar diffusion test, in vitro inhibitory activity; assay type: cell-based; conditions: 500 μg per 6 mm filter paper, PDA, 28° C., 72 or 96 hours
Description: as §1, §2, §3

Helminthosporium maydis = experiment: agar diffusion test, in vitro inhibitory activity; assay type: cell-based; conditions: 500 μg per 6 mm filter paper, PDA, 28° C., 72 or 96 hours
Description: as §1, §2, §3

Penicillium italicum = experiment: agar diffusion test, in vitro inhibitory activity; assay type: cell-based; conditions: 500 μg per 6 mm filter paper, PDA, 28° C., 72 or 96 hours
Description: as §1, §2, §3

Botrytis cinerea = experiment: agar diffusion test, in vitro inhibitory activity; assay type: cell-based; conditions: 500 μg per 6 mm filter paper, PDA, 28° C., 72 or 96 hours
Description: as §1, §2, §3

Rhizoctonia solani = experiment: agar diffusion test, in vitro inhibitory activity; assay type: cell-based; conditions: 500 μg per 6 mm filter paper, PDA, 28° C., 72 or 96 hours
Description: as §1, §2, §3

[4] = system: pathogenic fungi in the postharvest storage of citrus fruits; experiment: preservation of citrus in postharvest storage (infection index); assay type: in vivo, citrus reticulata blanco cv.shiyueju; conditions: soaked 5 minutes, stored at 25° C. for 15 days
Method: Experiment of the trisaccharide ester extract obtained in embodiment 2 in the preservation of citrus in postharvest storage Samples for the experiment: the trisaccharide ester extract (containing the compounds 1 to 4, with a mass ratio of about 60:35:4:1) obtained in embodiment 2 was dissolved in a small volume of ethanol and diluted with water to give treating solutions (200, 400 and 600 mg/L). The citrus fruits were soaked in the treating solutions for 5 minutes and left to dry. The fruits were then put in plastic baskets (the plastic baskets were surface-sterilized with 75% ethanol and left to dry in advance), sealed in polyethylene bags with a thickness of 0.02 mm, and stored at 25° C. for 15 days. The fruits were observed and their infection indexes were recorded. Calculation of the infection index: infection index=Σ(infection level×amount of fruits of the level)/([…]×total amount of fruits)×100%; infection level: 0 refers to “no obvious infection”, 1 refers to “slight infection”, 2 refers to “infection area smaller than or equal to ¼ of fruit surface”; 3 refers to “infection area larger than ¼ and smaller than ½ of fruit surface”, and 4 refers to “infection area larger than or equal to ½ of fruit surface”. Three replicates were set for each treating solution, and 60 fruits for each replicate. Fruits for the experiments: citrus reticulata blanco cv.shiyueju, harvested from Conghua Orchard.

Structure (SMILES) | Zone of inhibition (Alternaria solani) [mm] | Zone of inhibition (Fusarium oxysporium) [mm] | Zone of inhibition (Peronophythora litchii) [mm] | Zone of inhibition (Ustilaginoidea virens) [mm] | Zone of inhibition (Curvularia lunata) [mm] | Zone of inhibition [1] [mm] | Zone of inhibition [2] [mm] | Zone of inhibition [3] [mm] | Zone of inhibition (Helminthosporium maydis) [mm] | Zone of inhibition (Penicillium italicum) [mm] | Zone of inhibition (Botrytis cinerea) [mm] | Zone of inhibition (Rhizoctonia solani) [mm] | Infection index ([4]; treating solution 200 mg/L) [%] | Infection index ([4]; treating solution 400 mg/L) [%] | Infection index ([4]; treating solution 600 mg/L) [%]
CCC(C)CCCCCCC(=O)O[C@@H]1C(CO[C@H]2OC(CO)[C@H](O)C(O)C2O)O[C@H](O[C@H]2OC(COC(C)=O)[C@@H](O)C(O)C2O)C(OC(=O)CCC(C)CC)C1OC(=O)C(C)CC (single isomer, unassigned) [Compound 5, 6-O-β-L-mannosyl-3-O-(2-methylbutyryl)-4-O-(8-methyldecanoyl)-2-O-(4-methylhexanoyl)-6′-O-acetyltrehalose] | 10 | 8 | 10 | 16 | 16 | 15 | 8 | 8 | 18 | 14 | 9 | 12 | – | – | –
CCCCCCCCCC(=O)O[C@@H]1C(CO[C@H]2OC(CO)[C@H](O)[C@H](O)C2O)O[C@H](O[C@H]2OC(CO)[C@@H](O)[C@H](O)C2O)C(OC(=O)CCC(C)CC)[C@H]1OC(=O)C(C)CC (stereo partly drawn) [Compound 2, 4-O-decanoyl-6-O-β-L-mannosyl-3-O-(2-methylbutyryl)-2-O-(4-methylhexanoyl)trehalose] | 14 | 12 | 12 | 20 | 15 | 15 | 14 | 10 | 18 | 22 | 14 | 16 | – | – | –
CN(C)C(=S)SSC(=S)N(C)C [Thiram] | – | – | – | – | – | – | – | – | – | – | – | – | 29.0 ± 1.9 | 31.4 ± 0.9 | 29.2 ± 1.0
CCCCCCCC(=O)O[C@@H]1C(CO[C@H]2OC(CO)[C@H](O)[C@H](O)C2O)O[C@H](O[C@H]2OC(CO)[C@@H](O)[C@H](O)C2O)C(OC(=O)CCC(C)CC)[C@H]1OC(=O)C(C)CC (stereo partly drawn) [Compound 4] | 12 | 10 | 12 | 20 | 15 | 12 | 10 | 14 | 18 | 18 | 10 | 18 | – | – | –
CCC(C)CCCCCCC(=O)O[C@@H]1C(CO[C@H]2OC(CO)[C@H](O)[C@H](O)C2O)O[C@H](O[C@H]2OC(CO)[C@@H](O)[C@H](O)C2O)C(OC(=O)CCC(C)CC)[C@H]1OC(=O)C(C)CC (stereo partly drawn) [Compound 1, 6-O-β-L-mannosyl-3-O-(2-methylbutyryl)-4-O-(8-methyldecanoyl)-2-O-(4-methylhexanoyl)trehalose] | 12 | 10 | 13 | 22 | 12 | 17 | 16 | 12 | 22 | 20 | 15 | 18 | – | – | –

Source: patent US20190166835A1, “Fungal Trisaccharide Ester Compounds and Use Thereof in Preparing Agents for Preventing and Controlling Plant Fungal Diseases” (SOUTH CHINA BOTANICAL GARDEN, CHINESE ACADEMY OF SCIENCES, priority 2017, published 2019)
